Reference: patent US20130281398A1, “TREATMENT OF DISEASES BY EPIGENETIC REGULATION” (RVX Therapeutics Inc., priority 2012, published 2013)

Key:
[1] = system: IL-6; settings: in vivo; cited from earlier work
[2] = target: T1, Brd4 bromodomain 1 (Homo sapiens, UniProt O60885); experiment: TR-FRET inhibition of tetra-acetylated histone H4 binding to Brd4 bromodomain 1; settings: tetra-acetylated histone H4 peptide and Brd4 bromodomain 1, 2 hours at room temperature
T1 construct: Illustrative results with the first bromodomain of Brd4; made in house; host or cells: E. coli BL21(DE3)
Description: Proteins were cloned and overexpressed with a N-terminal 6×His tag, then purified by nickel affinity followed by size exclusion chromatography. Briefly, E. coli BL21(DE3) cells were transformed with a recombinant expression vector encoding N-terminally Nickel affinity tagged bromodomains from Brd2, Brd3, Brd4. Cell cultures were incubated at 37° C. with shaking to the appropriate density and induced overnight with IPTG. The supernatant of lysed cells was loaded onto Ni-IDA column for purification. Eluted protein was pooled, concentrated and further purified by size exclusion chromatography. Fractions representing monomeric protein are pooled, concentrated, aliquoted, and frozen at −80° C. for use in subsequent experiments.
Binding of tetra-acetylated histone H4 and BET bromodomains was confirmed by a Time Resolved Fluorescence Resonance Energy Transfer (TR-FRET) method. N-terminally His-tagged bromodomains (200 nM) and biotinylated tetra-acetylated histone H4 peptide (25-50 nM, Millipore) were incubated in the presence of Europium Cryptate-labeled streptavidin (Cisbio Cat. #610SAKLB) and XL665-labeled monoclonal anti-His antibody (Cisbio Cat. #61 HISXLB) in a white 96 well microtiter plate (Greiner). For inhibition assays, serially diluted test compound was added to these reactions in a 0.2% final concentration of DMSO. Final buffer concentrations were 30 mM HEPES pH 7.4, 30 mM NaCl, 0.3 mM CHAPS, 20 mM phosphate pH 7.0, 320 mM KF, 0.08% BSA). After 2 hours incubation at room temperature, the fluorescence by FRET was measured at 665 and 620 nm by a SynergyH4 plate reader (Biotek). The binding inhibitory activity was shown by a decrease in 665 nm fluorescence relative to 620 nm. IC50 values were determined from a dose response curve.

[3] = system: bacterial-induced inflammation and sepsis; settings: murine model; Lamotte et al. (2012); cited from earlier work
[4] = system: c-myc; experiment: Inhibition of c-myc expression (mRNA, real-time PCR) in MV4-11 cells; format: cell-based; parameters: key: Active: Compounds with an IC50 value less than 30 uM were deemed to be active; settings: c-myc mRNA in human AML MV4-11 cells, 3 hours incubation
Description: MV4-11 cells (2.5×10^4 cells) were plated in 96 well U-bottom plates with test compound or DMSO (0.1%), and incubated for 3 hours at 37° C. Cells were then harvested by centrifugation, lysed, and mRNA was isolated using the mRNA catcher plus kit (Invitrogen). Reverse transcription of the mRNA and duplex amplification of the c-myc and cyclophilin cDNAs was performed using the RNA Ultrasense kit (Invitrogen) and a ViiA7 real-time PCR machine (Applied Biosystems). IC50 values were determined from a dose response curve.

[5] = system: Human AML MV-4-11 cells; experiment: Inhibition of cell proliferation in human AML MV-4-11 cells; format: cell-based; parameters: key: Active: Compounds with an IC50 value less than 30 uM were deemed to be active; settings: 72 hours, CellTiter Aqueous One
Description: MV4-11 cells: 96-well plates were seeded with 5×10^4 cells per well of exponentially growing human AML MV-4-11 (CRL-9591) cells and immediately treated with two-fold dilutions of test compounds, ranging from 30 μM to 0.2 μM. Triplicate wells were used for each concentration, as well as a media only and three DMSO control wells. The cells and compounds were incubated at 37° C., 5% CO2 for 72 hours before adding 20 μL of the CellTiter Aqueous One Solution (Promega) to each well and incubating at 37° C., 5% CO2 for an additional 3-4 hours. The absorbance was taken at 490 nm in a spectrophotometer and the percentage of proliferation relative to DMSO-treated cells was calculated after correction from the blank well. IC50 were calculated using the GraphPad Prism software.

[6] = system: NUT (nuclear protein in testis) midline carcinoma (NMC); settings: murine xenograft models of NMC; Filippakopoulos et al. (2010); cited from earlier work
[7] = system: multiple myeloma; settings: associated with cell cycle arrest and cellular senescence, Delmore et al. (2011); cited from earlier work

| FRET activity (<50 uM) [2] | SMILES | other results |
| --- | --- | --- |
| Inactive | COc1cc(OC)c2c(=O)[nH]c(-c3ccc4oc(CO)cc4c3)nc2c1 [Example 19, 2-(2-hydroxymethyl-benzofuran-5-yl)-5,7-dimethoxy-3H-quinazolin-4-one] | – |
| Active | CNCCOc1c(C)cc(-c2nc3cc(OC)cc(OC)c3c(=O)[nH]2)cc1C [Example 36, 2-(3,5-dimethyl-4-(2-(methylamino)ethoxy)phenyl)-5,7-dimethoxyquinazolin-4(3H)-one] | – |
| Active | COc1cc(OC)c2c(=O)[nH]c(-c3ccc(OCCO)cc3)nc2c1 [Example 17, 2-[4-(2-hydroxy-ethoxy)-phenyl]-5,7-dimethoxy-3H-quinazolin-4-one] | – |
| Active | COc1cc(OC)c2c(=O)[nH]c(-c3ccc(OCCO)c4ccccc34)nc2c1 [Example 18, 2-[4-(2-hydroxy-ethoxy)-naphthalen-1-yl]-5,7-dimethoxy-3H-quinazolin-4-one] | – |
| Active | COc1cc(OC)c2c(=O)[nH]c(-c3cc(C)c(CNC(C)=O)c(C)c3)nc2c1 [Example 32, N-(4-(5,7-dimethoxy-4-oxo-3,4-dihydroquinazolin-2-yl)-2,6-dimethylbenzyl)acetamide] | c-myc activity (<30 uM) [4]: Inactive; cell proliferation activity (<30 uM) [5]: Inactive |
| Active | COc1cc(OC)c2c(=O)[nH]c(-c3cc(C)c(OCCNC(C)C)c(C)c3)nc2c1 [Example 38, 2-(4-(2-(isopropylamino)ethoxy)-3,5-dimethylphenyl)-5,7-dimethoxyquinazolin-4(3H)-one] | c-myc activity (<30 uM) [4]: Active; cell proliferation activity (<30 uM) [5]: Active |
| Inactive | COc1ccc2c(=O)[nH]c(-c3cc(C)c(OCCO)c(C)c3)nc2c1 [Example 28, 2-(4-(2-hydroxyethoxy)-3,5-dimethylphenyl)-7-methoxyquinazolin-4(3H)-one] | – |
| Inactive | COc1cc(OC)c2c(=O)[nH]c(-c3cc(C)c(OCCNc4ncccn4)c(C)c3)nc2c1 [Example 47, 2-(3,5-dimethyl-4-(2-(pyrimidin-2-ylamino)ethoxy)phenyl)-5,7-dimethoxyquinazolin-4(3H)-one] | – |
| Active | COc1cc(OC)c2c(=O)[nH]c(-c3cc(C)c(OCCNS(=O)(=O)C(C)C)c(C)c3)nc2c1 [Example 37, N-(2-(4-(5,7-dimethoxy-4-oxo-3,4-dihydroquinazolin-2-yl)-2,6-dimethylphenoxy)ethyl)propane-2-sulfonamide] | – |
| Active | COc1cc(OC)c2c(=O)[nH]c(-c3cc(C)c(OCCN(C)C=O)c(C)c3)nc2c1 [Example 43, N-(2-(4-(5,7-dimethoxy-4-oxo-3,4-dihydroquinazolin-2-yl) 2,6-dimethylphenoxy)ethyl)-N-methylformamide] | – |
| Active | COc1cc(OC)c2c(=O)[nH]c(-c3cc(C)c(OCCNc4nc(C)no4)c(C)c3)nc2c1 [Example 30, 2-{3,5-Dimethyl-4-[2-(3-methyl-[1,2,4]oxadiazol-5-ylamino)-ethoxy]-phenyl}-5,7-dimethoxy-3H-quinazolin-4-one] | – |

Continued, molecule first:

| SMILES | FRET activity (<50 uM) [2] | other results |
| --- | --- | --- |
| CCNC(=O)C[C@@H]1N=C(c2ccc(Cl)cc2)c2cc(OC)ccc2-n2c(C)nnc21 [I-BET] | – | IL-6 expression [1]: decrease IL-6 expression |
| Cc1cc(C)c2c(=O)[nH]c(-c3cc(C)c(OCCO)c(C)c3)nc2n1 [Example 13, 2-(4-(2-hydroxyethoxy)-3,5-dimethylphenyl)-5,7-dimethylpyrido[2,3-d]pyrimidin-4(3H)-one] | Active | – |
| COc1cc(OC)c2c(=O)[nH]c(-c3cc(C)c(OCCNc4nc(OC)cc(OC)n4)c(C)c3)nc2c1 [Example 49, 2-(4-(2-(4,6-dimethoxypyrimidin-2-ylamino)ethoxy)-3,5-dimethylphenyl)-5,7-dimethoxyquinazolin-4(3H)-one] | Inactive | – |
| Cc1cc(-c2nc3ccc(Nc4ccncc4)cc3c(=O)[nH]2)cc(C)c1O [Example 8, 2-(4-hydroxy-3,5-dimethyl-phenyl)-6-(pyridin-4-ylamino)-3H-quinazolin-4-one] | Active | – |
| COc1cc2c(cc1-c1c(C)noc1C)ncc1[nH]c(=O)n([C@H](C)c3ccccn3)c12 [I-BET151] | – | IL-6 expression [1]: decrease IL-6 expression; bacterial-induced inflammation and sepsis [3]: suppress bacterial-induced inflammation and sepsis |
| Cc1cc(-c2nc3cc(F)cc(F)c3c(=O)[nH]2)cc(C)c1OCCO [Example 14, 5,7-difluoro-2-(4-(2-hydroxyethoxy)-3,5-dimethylphenyl)quinazolin-4(3H)-one] | Inactive | – |
| Cc1cc(-c2nc3cc(Cl)ccc3c(=O)[nH]2)cc(C)c1OCCO [Example 26, 7-chloro-2-(4-(2-hydroxyethoxy)-3,5-dimethylphenyl)quinazolin-4(3H)-one] | Inactive | – |
| Cc1sc2c(c1C)C(c1ccc(Cl)cc1)=N[C@@H](CC(=O)OC(C)(C)C)c1nnc(C)n1-2 [JQ1] | – | antitumor activity [6]: potent antitumor activity; antiproliferative effect [7]: potent antiproliferator |
